Where “and” joins values, the source holds several entries; their conditions need not be identical. Identical values can stand only once. Toxic doses and inconclusive results are not listed.
System: CD2F1 mice, L1210 leukemia ip, survival T/C
Experiment: NCI In Vivo Anticancer Drug Screen. Data for tumor model L1210 Leukemia (intraperitoneal) in CD2F1 (CDF1) mice
Conditions: endpoint: mean survival time, higher = longer survival
Outline: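 Mice carrying a transplanted tumor received test compound or vehicle alone. The value is the measurement in the treated group divided by that in the vehicle-treated control group.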

[1] = dose: 100.0 mg/kg/injection, schedule: Q01DX009 (ip), vehicle: saline with Tween-80
[2] = dose: 100.0 mg/kg/injection, schedule: Q04DX003 (ip), vehicle: saline with Tween-80
[3] = dose: 200.0 mg/kg/injection, schedule: Q01DX009 (ip), vehicle: saline with Tween-80
[4] = dose: 200.0 mg/kg/injection, schedule: Q04DX003 (ip), vehicle: saline with Tween-80
[5] = dose: 400.0 mg/kg/injection, schedule: Q01DX009 (ip), vehicle: saline with Tween-80
[6] = dose: 400.0 mg/kg/injection, schedule: Q04DX003 (ip), vehicle: saline with Tween-80
[7] = dose: 100.0 mg/kg/injection, schedule: Q04DX003 (ip), vehicle: saline
[8] = dose: 200.0 mg/kg/injection, schedule: Q04DX003 (ip), vehicle: saline
[9] = dose: 400.0 mg/kg/injection, schedule: Q04DX003 (ip), vehicle: saline
[10] = dose: 25.0 mg/kg/injection, schedule: Q01DX009 (ip), vehicle: Klucel (hydroxypropylcellulose) (HPC)
[11] = dose: 50.0 mg/kg/injection, schedule: Q01DX009 (ip), vehicle: Klucel (hydroxypropylcellulose) (HPC)
[12] = dose: 50.0 mg/kg/injection, schedule: Q04DX002 (ip), vehicle: saline with Tween-80
[13] = dose: 100.0 mg/kg/injection, schedule: Q04DX002 (ip), vehicle: saline with Tween-80
[14] = dose: 200.0 mg/kg/injection, schedule: Q04DX002 (ip), vehicle: saline with Tween-80
[15] = dose: 75.0 mg/kg/injection, schedule: Q01DX001 (ip), vehicle: saline
[16] = dose: 150.0 mg/kg/injection, schedule: Q01DX001 (ip), vehicle: saline
[17] = dose: 300.0 mg/kg/injection, schedule: Q01DX001 (ip), vehicle: saline

Compound: CC1(C)COCN1COCCOCN1COCC1(C)C
- T/C (dose: 6.25 mg/kg/injection, schedule: Q01DX009 (ip), vehicle: saline): 97 % of control and 98 % of control
- T/C (dose: 12.5 mg/kg/injection, schedule: Q01DX009 (ip), vehicle: saline): 100 % of control and 101 % of control
- T/C (dose: 25.0 mg/kg/injection, schedule: Q01DX009 (ip), vehicle: saline): 105 % of control and 107 % of control
- T/C (dose: 50.0 mg/kg/injection, schedule: Q01DX009 (ip), vehicle: saline): 106 % of control and 107 % of control
- T/C (dose: 100.0 mg/kg/injection, schedule: Q01DX009 (ip), vehicle: saline): 95 % of control and 105 % of control

Compound: NC(=O)C1=C2CCCc3cccc(c32)C1=O
- T/C [1]: 94 % of control
- T/C [2]: 99 % of control
- T/C [3]: 94 % of control
- T/C [4]: 100 % of control
- T/C [5]: 97 % of control
- T/C [6]: 87 % of control

Compound: CC(=O)NC(C)C1(O)CCCCC1 (configuration not stated)
- T/C [7]: 100 % of control
- T/C [8]: 97 % of control
- T/C [9]: 94 % of control

Compound: CCOC(=O)CC(C)(C)NCc1ccccc1
- T/C [10]: 91 % of control
- T/C [11]: 97 % of control
- T/C (dose: 100.0 mg/kg/injection, schedule: Q01DX009 (ip), vehicle: Klucel (hydroxypropylcellulose) (HPC)): 91 % of control

Compound: Nc1nc(N)n2nnnc2c1[N+](=O)[O-]
- T/C (dose: 100.0 mg/kg/injection, schedule: Q01DX001 (ip), vehicle: carboxymethylcellulose (CMC)): 108 % of control

Compound: CCCN(CCC)CCC(=O)OCC
- T/C [1]: 97 % of control
- T/C [2]: 97 % of control
- T/C [3]: 97 % of control
- T/C [4]: 114 % of control
- T/C [5]: 100 % of control
- T/C [6]: 100 % of control

Compound: C[C@]12C=CC(=O)C=C1CC[C@@H]1[C@@H]2[C@@H](O)C[C@@]2(C)[C@H]1CC[C@]2(O)C(=O)CO
- T/C (dose: 12.5 mg/kg/injection, schedule: Q01DX010 (sc), vehicle: steriod suspending solution): 108 % of control
- T/C (dose: 25.0 mg/kg/injection, schedule: Q01DX009 (sc), vehicle: steriod suspending solution): 106 % of control and 109 % of control
- T/C (dose: 25.0 mg/kg/injection, schedule: Q01DX010 (sc), vehicle: steriod suspending solution): 108 % of control
- T/C (dose: 50.0 mg/kg/injection, schedule: Q01DX009 (sc), vehicle: steriod suspending solution): 113 % of control and 106 % of control
- T/C (dose: 50.0 mg/kg/injection, schedule: Q01DX010 (sc), vehicle: steriod suspending solution): 112 % of control
- T/C (dose: 100.0 mg/kg/injection, schedule: Q01DX009 (sc), vehicle: steriod suspending solution): 116 % of control
- T/C (dose: 100.0 mg/kg/injection, schedule: Q01DX010 (sc), vehicle: steriod suspending solution): 108 % of control
- T/C (dose: 200.0 mg/kg/injection, schedule: Q01DX009 (sc), vehicle: steriod suspending solution): 113 % of control and 116 % of control

Compound: O=C(OC1(c2c(F)c(F)c(F)c(F)c2F)C2C=CC1CC2)c1ccc([N+](=O)[O-])cc1 (configuration not stated)
- T/C [12]: 102 % of control
- T/C [13]: 105 % of control
- T/C [14]: 98 % of control
- T/C (dose: 400.0 mg/kg/injection, schedule: Q04DX002 (ip), vehicle: saline with Tween-80): 90 % of control

Compound: CC(=O)C(N=Nc1cccc2c1C(=O)c1ccccc1C2=O)C(=O)Nc1ccccc1C (configuration not stated)
- T/C [15]: 98 % of control
- T/C [16]: 93 % of control
- T/C [17]: 96 % of control

Compound: O=C(O)CC(=O)O.[NH-]C1CCCCC1C1CCCCC1[NH-].[Pt+2] (configuration not stated)
- T/C (dose: 3.12 mg/kg/injection, schedule: Q04DX003 (ip), vehicle: distilled water + Tween-80): 106 % of control
- T/C (dose: 6.25 mg/kg/injection, schedule: Q04DX003 (ip), vehicle: distilled water + Tween-80): 112 % of control
- T/C (dose: 12.5 mg/kg/injection, schedule: Q04DX003 (ip), vehicle: distilled water + Tween-80): 119 % of control
- T/C (dose: 50.0 mg/kg/injection, schedule: Q04DX003 (ip), vehicle: distilled water + Tween-80): 165 % of control
- T/C (dose: 100.0 mg/kg/injection, schedule: Q04DX003 (ip), vehicle: distilled water + Tween-80): 201 % of control
- T/C (dose: 200.0 mg/kg/injection, schedule: Q04DX003 (ip), vehicle: distilled water + Tween-80): 194 % of control

Compound: CCOc1ccc(-n2c(=O)c(N=Nc3ccccc3OC)c(O)n(-c3ccc(C)cc3)c2=S)cc1
- T/C (dose: 100.0 mg/kg/injection, schedule: Q01DX001 (ip), vehicle: saline with Tween-80): 98 % of control
- T/C (dose: 200.0 mg/kg/injection, schedule: Q01DX001 (ip), vehicle: saline with Tween-80): 101 % of control
- T/C (dose: 400.0 mg/kg/injection, schedule: Q01DX001 (ip), vehicle: saline with Tween-80): 97 % of control

Compound: Nc1nc(N)c2cc(CNc3ccc(C(=O)NC(CC(=O)O)CC(=O)O)cc3)ccc2n1
- T/C [10]: 160 % of control
- T/C [11]: 162 % of control and 206 % of control
- T/C (dose: 200.0 mg/kg/injection, schedule: Q01DX009 (ip), vehicle: Klucel (hydroxypropylcellulose) (HPC)): 114 % of control and 103 % of control
- T/C (dose: 400.0 mg/kg/injection, schedule: Q01DX009 (ip), vehicle: Klucel (hydroxypropylcellulose) (HPC)): 96 % of control and 98 % of control

Compound: NCCCN1CCN(c2ccccc2)CC1
- T/C [13]: 92 % of control
- T/C [14]: 92 % of control

Compound: O=C(NC(=S)Nc1ccccc1C(=O)O)c1ccccc1
- T/C (dose: 66.0 mg/kg/injection, schedule: Q01DX009 (ip), vehicle: saline sonified): 103 % of control
- T/C (dose: 100.0 mg/kg/injection, schedule: Q01DX009 (ip), vehicle: saline sonified): 103 % of control
- T/C (dose: 150.0 mg/kg/injection, schedule: Q01DX009 (ip), vehicle: saline sonified): 103 % of control

Compound: Cc1ncc(COP(=O)(O)O)c(C=NC(C)C(=O)O)c1O.O.[Cu] (configuration not stated)
- T/C (dose: 6.25 mg/kg/injection, schedule: Q01DX001 (ip), vehicle: saline with Tween-80): 95 % of control
- T/C (dose: 12.5 mg/kg/injection, schedule: Q01DX001 (ip), vehicle: saline with Tween-80): 92 % of control
- T/C (dose: 25.0 mg/kg/injection, schedule: Q01DX001 (ip), vehicle: saline with Tween-80): 103 % of control

Compound: O=c1c(Br)cocc1Br
- T/C (dose: 100.0 mg/kg/injection, schedule: Q04DX003 (ip), vehicle: saline sonified): 104 % of control
- T/C (dose: 200.0 mg/kg/injection, schedule: Q04DX003 (ip), vehicle: saline sonified): 102 % of control
- T/C (dose: 400.0 mg/kg/injection, schedule: Q04DX003 (ip), vehicle: saline sonified): 102 % of control

Compound: CC(=O)CC(O)(C(F)(F)F)C(F)(F)F
- T/C (dose: 50.0 mg/kg/injection, schedule: Q01DX009 (ip), vehicle: saline with Tween-80): 101 % of control
- T/C [1]: 102 % of control
- T/C [2]: 102 % of control
- T/C [3]: 101 % of control
- T/C [4]: 89 % of control

Compound: N#CSc1ccc(Nc2ccc(SC#N)cc2)cc1
- T/C (dose: 12.5 mg/kg/injection, schedule: Q04DX003 (ip), vehicle: Klucel (hydroxypropylcellulose) (HPC)): 113 % of control
- T/C (dose: 25.0 mg/kg/injection, schedule: Q04DX003 (ip), vehicle: Klucel (hydroxypropylcellulose) (HPC)): 109 % of control
- T/C (dose: 50.0 mg/kg/injection, schedule: Q04DX003 (ip), vehicle: Klucel (hydroxypropylcellulose) (HPC)): 107 % of control

Compound: CC(C)CCC(C)C1CCC2C3CCC4CC(=O)CC4(C)C3CCC12C (configuration not stated)
- T/C [2]: 100 % of control
- T/C [4]: 94 % of control
- T/C [6]: 97 % of control

Compound: CN(C)N=Nc1c(F)c(F)c(C(N)=O)c(F)c1F
- T/C (dose: 3.13 mg/kg/injection, schedule: Q01DX009 (ip), vehicle: other): 115 % of control
- T/C (dose: 6.25 mg/kg/injection, schedule: Q01DX009 (ip), vehicle: other): 120 % of control
- T/C (dose: 50.0 mg/kg/injection, schedule: Q01DX009 (ip), vehicle: other): 96 % of control
- T/C (dose: 100.0 mg/kg/injection, schedule: Q01DX009 (ip), vehicle: other): 105 % of control

Compound: CC(Cc1ccccc1)NNC(C)Cc1ccccc1 (configuration not stated)
- T/C [15]: 98 % of control
- T/C [16]: 102 % of control
- T/C [17]: 97 % of control

Compound: Cc1cc2c(cc1C)[n+]([O-])c1c(=O)[nH]c(=O)[nH]c1[n+]2[O-]
- T/C (dose: 25.0 mg/kg/injection, schedule: Q04DX002 (ip), vehicle: saline with Tween-80): 98 % of control
- T/C [12]: 102 % of control

Compound: COC1(OC)C(Cl)=C(Cl)C2C1C1(Cl)C(Cl)=C(Cl)C2(Cl)C1(OC)OC (configuration not stated)
- T/C (dose: 100.0 mg/kg/injection, schedule: Q01DX001 (ip), vehicle: saline): 106 % of control
- T/C [7]: 105 % of control
- T/C (dose: 200.0 mg/kg/injection, schedule: Q01DX001 (ip), vehicle: saline): 106 % of control
- T/C [8]: 103 % of control
- T/C (dose: 400.0 mg/kg/injection, schedule: Q01DX001 (ip), vehicle: saline): 102 % of control
- T/C [9]: 100 % of control

Compound: CC1(C)CC(O)(Cc2ccccc2)C(O)c2ccccc21 (configuration not stated)
- T/C [2]: 93 % of control
- T/C [4]: 97 % of control
- T/C [6]: 93 % of control

— PubChem BioAssay AID256 (DTP/NCI, 2004)
